Laboratory results: patent US20240067651A1 (Biohaven Therapeutics Ltd., priority 2019, published 2024)

Experiments:
[1] = Caco-2 Permeability Assay; format: in vitro ADME, human; settings: human
Source text: The compounds of the invention may be tested for biological activity as MPO inhibitors by methods known to those skilled in the art. In addition, methods such as, for example, a Caco-2 assay, may be used to test the bioavailability of the compounds of the invention. A description of a Caco-2 permeability assay is as follows:
• The Caco-2 monolayer is widely used across the pharmaceutical industry as an in vitro model of the human small intestinal mucosa to predict the absorption of orally administered drugs.^1-4 • The Caco-2 cell model mimics processes such as transcellular transport, paracellular transport, and some aspects of efflux and active transport. • Readout: Papp (A→B), Papp (B→A), Efflux ratio, % Recovery • Controls: with and without Pgp inhibitor; Atenolol, Propanolol, Taxel-1
The Caco-2 cells are cultured to confluency, trypsinized and seeded onto a filter transwell insert at a density of ^˜32,000 cells/well in DMEM cell culture medium. Cells are grown in a humidified atmosphere of 5% CO2 at 37° C. Following an overnight attachment period (24 h after seeding), the cell medium is replaced with fresh medium in both the apical and basolateral compartments every other day. The cell monolayers are used for transport studies 21 days post seeding after measuring the TEER values ([…]). The apical sides and basolateral sides are washed consecutively with HBSS 2.5% (v/v), HEPES (pH 7.4) or HBSS 2.5% (v/v), HEPES 10% (v/v), and Fetal Bovine Serum (pH 7.4) at 37° C. in an incubator under an atmosphere of 5% CO2.
Donor working solution is prepared by dilution of DMSO stock of test article or positive control with transport media to 10 μM.
For A→B directional transport, the donor working solution (with test article or positive control, with or without Pgp inhibitor) is added to the apical (A) compartment and the transport media as receiver working solution is added to the basolateral (B) compartment. For B→A directional transport, the donor working solution (with positive control or test article, with or without Pgp inhibitor) is added to the basolateral (B) compartment and transport media as receiver working solution is added to the apical (A) compartment.
The cells are incubated in a humidified atmosphere of 5% CO2 at 37° C. for 90 minutes.
At the end of the incubation, samples are taken from both donor and receiver compartments and transferred into 96-well assay plates containing internal standard solution (IS) in each well. After centrifugation, the supernatant solutions are transferred to clean 96 well plates and analyzed by LC-MS/MS. The MS detection is performed using a Sciex API 4000 instrument. Each compound is analyzed by reversed phase HPLC.
The parameters Papp (apparent permeability) and efflux ratio are calculated as follows:
Papp=(dQ/dt)×(1/C0)×(1/A)
Efflux ratio=Papp[B→A]/Papp[A→B]
where dQ/dt is the permeability rate, C0 is the initial concentration in the donor compartment, and A is the surface area of the cell monolayer (0.33 cm^2). The Papp value is a rate measured in cm/s. Calculated Papp is ranked as low (<[…]), moderate (1-10×10^−6 cm/s), and high (>[…]).
Comparing the efflux ratios generated in the presence and absence of a Pgp inhibitor identifies whether the test article is a Pgp substrate.
Recovery is calculated as follows:
% Recovery=(Total compound mass in donor and receiver compartments at the end of the incubation/Initial compound mass in the donor compartment)×100.

[2] = Stability in Simulated Gastric Fluid (SGF); format: in vitro ADME; design: key: % parent compound remaining relative to 0-minute sample; settings: % remaining at 1 h in simulated gastric fluid
How it was run: (§1)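 Percent parent compound remaining, by LC-MS/MS against the 0-minute sample, is reported after incubation at 2 μg/mL (final) in pepsin-containing SGF at pH 1.2 or pancreatin-containing SIF at pH 6.8. Incubations run at 37° C for up to 60 minutes.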

[3] = Stability in Simulated Intestinal Fluid (SIF); format: in vitro ADME; design: key: % parent compound remaining relative to 0-minute sample; settings: % remaining at 1 h in simulated intestinal fluid
How it was run: as §1

[4] = Plasma Stability; format: in vitro ADME, human; settings: % remaining at 1 h in human plasma
How it was run: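 Compounds incubated at 1 μM in fresh human plasma for 1 hour at 37° C, then protein-precipitated with acetonitrile/formic acid containing internal standard. Remaining parent measured by LC-MS/MS in triplicate, expressed as percent of control remaining.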

[5] = Caco-2, pH 7.4, Caco-2 monolayer

Compound | Papp at 90 min, 10 µM [1, 5] | SGF [2] | SIF [3] | human Plasma stability [4] | Papp at 90 min, 10 µM ([1]; pH 7.4, Caco-2 monolayer)
CC(C)OCCn1c(=S)[nH]c(=O)c2c1ccn2COC(=O)CCNC(=O)[C@@H](N)CCc1ccccc1.O=C(O)C(F)(F)F [Example 25] | 0.287 ×10⁻⁶ cm/s | 99% remaining | 43% remaining | 96% remaining | –
CC(C)C[C@H](NC(=O)OC(C)(C)C)C(=O)NCCCCC(=O)OCn1ccc2c1c(=O)[nH]c(=S)n2CCOC(C)C [Example 26] | 12.7 ×10⁻⁶ cm/s | 99% remaining | 66% remaining | 32% remaining | –
CC(C)C[C@H](NC(=O)OC(C)(C)C)C(=O)NCCC(=O)OCn1ccc2c1c(=O)[nH]c(=S)n2CCOC(C)C [Example 27] | 8.61 ×10⁻⁶ cm/s | 92% remaining | 61% remaining | 91% remaining | –
CSCC[C@H](NC(=O)OC(C)(C)C)C(=O)NCCCCC(=O)OCn1ccc2c1c(=O)[nH]c(=S)n2CCOC(C)C [Example 28] | 6.7 ×10⁻⁶ cm/s | 99% remaining | 75% remaining | 62% remaining | –
CSCC[C@H](NC(=O)OC(C)(C)C)C(=O)NCCC(=O)OCn1ccc2c1c(=O)[nH]c(=S)n2CCOC(C)C [Example 29] | 5.41 ×10⁻⁶ cm/s | 92% remaining | 62% remaining | 98% remaining | –
CC(C)C[C@H](N)C(=O)NCCC(=O)OCn1ccc2c1c(=O)[nH]c(=S)n2CCOC(C)C.O=C(O)C(F)(F)F [Example 30] | < 0.269 ×10⁻⁶ cm/s | 93% remaining | 67% remaining | 40% remaining | –
CSCC[C@H](N)C(=O)NCCCCC(=O)OCn1ccc2c1c(=O)[nH]c(=S)n2CCOC(C)C.O=C(O)C(F)(F)F [Example 31] | 0.325 ×10⁻⁶ cm/s | 94% remaining | 85% remaining | 1% remaining | –
CC[C@H](C)[C@H](NC(=O)OC(C)(C)C)C(=O)NCCCCC(=O)OCn1ccc2c1c(=O)[nH]c(=S)n2CCOC(C)C [Example 33] | 9.47 ×10⁻⁶ cm/s | 90% remaining | 78% remaining | 53% remaining | –
CC[C@H](C)[C@H](NC(=O)OC(C)(C)C)C(=O)NCCC(=O)OCn1ccc2c1c(=O)[nH]c(=S)n2CCOC(C)C [Example 34] | 10.7 ×10⁻⁶ cm/s | 85% remaining | 90% remaining | 93% remaining | –
CC(C)OCCn1c(=S)[nH]c(=O)c2c1ccn2COC(=O)CCCCNC(=O)[C@@H](NC(=O)OC(C)(C)C)[C@@H](C)O.O=C(O)C(F)(F)F [Example 35] | 1.91 ×10⁻⁶ cm/s | 91% remaining | 99% remaining | 30% remaining | –
CC(C)OCCn1c(=S)[nH]c(=O)c2c1ccn2COC(=O)CCNC(=O)[C@@H](NC(=O)OC(C)(C)C)[C@@H](C)O.O=C(O)C(F)(F)F [Example 36] | 0.835 ×10⁻⁶ cm/s | 95% remaining | 88% remaining | 79% remaining | –
CC[C@H](C)[C@H](N)C(=O)NCCCCC(=O)OCn1ccc2c1c(=O)[nH]c(=S)n2CCOC(C)C.O=C(O)C(F)(F)F [Example 37] | 1.09 ×10⁻⁶ cm/s | 88% remaining | 89% remaining | 1% remaining | –
CC[C@H](C)[C@H](N)C(=O)NCCC(=O)OCn1ccc2c1c(=O)[nH]c(=S)n2CCOC(C)C.O=C(O)C(F)(F)F [Example 38] | 0.31 ×10⁻⁶ cm/s | 92% remaining | 84% remaining | 65% remaining | –
CC(C)OCCn1c(=S)[nH]c(=O)c2c1ccn2COC(=O)CCCCNC(=O)[C@@H](N)[C@@H](C)O.O=C(O)C(F)(F)F [Example 39] | < 0.196 ×10⁻⁶ cm/s | 91% remaining | 91% remaining | 5% remaining | –
CC(C)OCCn1c(=S)[nH]c(=O)c2c1ccn2COC(=O)CCNC(=O)[C@@H](N)[C@@H](C)O.O=C(O)C(F)(F)F [Example 40] | < 0.235 ×10⁻⁶ cm/s | 100% | 86% remaining | 88% remaining | –
CC(C)OCCn1c(=S)[nH]c(=O)c2c1ccn2COC(=O)CCCCNC(=O)[C@H](CO)NC(=O)OC(C)(C)C.O=C(O)C(F)(F)F [Example 41] | 1.15 ×10⁻⁶ cm/s | 78% remaining | 87% remaining | 21% remaining | –
CC(C)OCCn1c(=S)[nH]c(=O)c2c1ccn2COC(=O)CCNC(=O)[C@H](CO)NC(=O)OC(C)(C)C.O=C(O)C(F)(F)F [Example 42] | 0.507 ×10⁻⁶ cm/s | 86% remaining | 75% remaining | 51% remaining | –
CC(C)OCCn1c(=S)[nH]c(=O)c2c1ccn2COC(=O)CCCCNC(=O)[C@@H](N)CO.O=C(O)C(F)(F)F [Example 43] | 0.147 ×10⁻⁶ cm/s | 92% remaining | 87% remaining | 16% remaining | –
CC(C)OCCn1c(=S)[nH]c(=O)c2c1ccn2COC(=O)CCNC(=O)[C@@H](N)CO.O=C(O)C(F)(F)F [Example 44] | < 0.222 ×10⁻⁶ cm/s | 96% remaining | 1% remaining | 5% remaining | –
CC(C)OCCn1c(=S)[nH]c(=O)c2c1ccn2COC(=O)CCCCNC(=O)[C@H](Cc1ccc(O)cc1)NC(=O)OC(C)(C)C.O=C(O)C(F)(F)F [Example 45] | – | 100% | 89% remaining | 66% remaining | 2.28 ×10⁻⁶ cm/s
CC(C)OCCn1c(=S)[nH]c(=O)c2c1ccn2COC(=O)CCNC(=O)[C@H](Cc1ccc(O)cc1)NC(=O)OC(C)(C)C.O=C(O)C(F)(F)F [Example 46] | 1.12 ×10⁻⁶ cm/s | 98% remaining | 100% | 63% remaining | –
